# Test results published in patent US10351519B2, “Sulfamate derivative compounds, processes for preparing them and their uses” (BIO-PHARM SOLUTIONS CO., LTD., priority 2016, dated 2019).
# Assays:
# Type in all cases: in vivo
# ICR mice [1] = test: Anti-epilepsy activity, MES test, mouse
# Experimental: (§1) In the MES test (Ref., G. Villetti et al. Neuropharmacology 40 (2001) 866-878), an electrical stimulus (mice: 50 mA, 60 Hz, 0.2 sec, and rats: 150 mA, 60 Hz, 0.2 sec in the test animal) supplied by an 11A Shocker (IITC Life Science Company) was delivered through corneal electrodes. All mice or rats assigned to any electroshock at peak time were treated with each test compound sample which was dissolved in 30% PEG 400 or 20% tween 80 prepared by saline solvent applied orally before the test. […] Three doses of the test sample were administered orally to 9-18 animals (3-6 mice per dose) for evaluating the respective doses at which 50% of the animals were protected from seizure (ED50). The ED50 value (median effective dose) was calculated by Litchfield and Wicoxon log-probit method which is a dose-response relationship. Experimental animals, male ICR mice and male SD rats, were purchased from OrientBio, Samtako, or Nara Biotech, Korea, and housed in cages (4-5 mice or 3 rats per cage) for 4-5 days. The range of mice body weight was between 19 and 25 grams and range of rats body weight was between 100 and 130 grams.
# Sprague-Dawley rats [2] = test: Lithium-pilocarpine induced epilepsy test, prevention; details: i.p.
# Experimental: Male Sprague-Dawley rats (purchased from Orient Bio Inc. Korea) of body weight 175-200 grams were used for these studies and 3 rats per cage were housed for 4-5 days. On the day prior to SE, rats received 127 mg/kg lithium chloride (Sigma, St. Louis, Mo., U.S.A.) intraperitoneally (i.p.). Approximately 18-20 h following this treatment, rats were given an i.p. injection of CD97 dose (30-43 mg/kg) pilocarpine (Sigma). An i.p. injection of 2 mg/kg methyl-scopolamine (Sigma) was administered 30 min prior to pilocarpine to block the effects of the muscarinic agonist on peripheral cholinergic receptors. Test drugs were dissolved in 30% PEG 400 or 20% tween80 (Sigma).
# The drugs were administered intraperitoneally (i.p.) in a volume of 2 ul/g body weight. Pharmacological effects of all of the test materials were evaluated to compare test groups (n=6) with a control group (n=6). Control group was administered vehicle only. The efficacy was measured 0.5, 1, 2, or 4 hours after the administration of the test material. The time point that the most animals were protected was defined as peak time and the ED50 was determined at peak time. The animals were then transferred to observation cages and observed continuously for 90 min. Seizure was elicited in approximately 95% of the control group. Protection was defined as complete absence of seizure grade 3-5 (Racine scale; Racine, 1972) over the 90-min observation period. The effective dose of the compound necessary to protect 50% of the animals against seizures compared to controls (i.e. ED50) was determined by a curve fitting program (Excel 2007, Microsoft).
# Sprague-Dawley rats [3] = test: Antiallodynic activity on Chung model (SNL, spinal nerve ligation); details: orally; for ED50: Rattus norvegicus, po, at peak time; for SNL efficacy %: 30 mg/kg
# From the text: Male Sprague-Dawley rats (100-130 g, Orient Bio, Korea) were habituated for 1 week before the experiment and allowed free access to food and water throughout the experimentation. Room temperature and humidity were maintained at 24±2 and 50±10%, respectively. The neuropathic surgery (SNL, Spinal nerve ligation) model was done as described in Kim and Chung (1992). Briefly, an animal was put under gaseous anesthesia with isoflurane. The left lumber spinal nerve L5 and L6 were isolated and tightly ligated with 6-0 silk thread. The wound muscle was closed with Catgut® chrom 3/0 thread and skin was closed with Dafilon 3/0 tread. Sham controls were prepared in the same manner with the spinal nerves exposed, but with no ligated L5 and L6 nerves. Preparation of the vehicle controls were identical to the group treated with compound, except for administration of vehicles without compound in the vehicle control group.
# Tactile sensitivity (Mechanical allodynia) was evaluated using von Frey monofilaments before and after treatment, and animals were included in the study only if the withdrawal threshold value was less than 4 g. One week after surgery, SNL-operated animals, sham-operated animals and vehicle control animals were tested for tactile sensitivity with von Frey monofilaments 3 trials in each animal. All Animals were placed in a stainless steel mash chamber and habituated for 30 min in the test cage. The tactile sensitivity for the ipsilateral hind paw was measured using the up-and-down method (Dixon, 1980) with seven von Frey monofilaments (0.4, 1, 2, 4, 6, 8, and 15 g) in 3 trials. The tactile sensitivity test was followed by Dixon's method (Dixon, 1980). The 50% paw withdrawal threshold for each paw was calculated using the following formula: [Xth] log=[vFr] log+ky where [vFr] is the force of the last von Frey used, k=0.2249 which is the average interval (in log units) between the von Frey monofilaments, and y is a value that depends upon the pattern of withdrawal responses (Dixon, 1980).
# All animals were fasted 18 h before the administration of the compounds. Antiallodynic effect of compounds were evaluated at the three dose, orally administrated in a volume of 5 ul/g, bw in a vehicle of 30% (v/v) PEG 400 or 20% (v/v) Tween 80. The test was performed at the peak time of efficacy after compound administration.
# The relative values compared to the sham group (% control) were calculated and shown in Table 3, which show an antiallodynic effect of the test compounds on SNL model in rats.
# Sprague-Dawley rats [4] = test: Antiallodynic activity on Complete Freund's Adjuvant (CFA)-induced inflammatory pain model; details: intraperitoneally
# Experimental: Male, Sprague-Dawley rats (210-250 g, Nara Bio, Korea) were habituated for 1 week before CFA injection and allowed free access to food and water throughout the experimentation. Room temperature and humidity were maintained at 24±2 and 50±10%, respectively.
# CFA-induced inflammatory pain was induced by the procedure of Nagakura et al. (2003) and Gregory P. et al. (2010) with minor modifications. CFA (sigma, USA) was injected in the right plantar with a 100 ul volume under gaseous anesthesia with isoflurane. Sham controls were injected with 100 ul of saline and preparation of the vehicles without compound in the vehicle control group. Tactile sensitivity (Mechanical allodynia) was evaluated using von Frey monofilaments before and after treatment, and the animals were included in the study only if the withdrawal threshold value was less than 4 g. One week after surgery, CFA-infused treatment animals (n=4-6), sham-operated animals (n=12), and vehicle control animals (n=17) were tested for tactile sensitivity with von Frey monofilaments 3 trials for each animal. All Animals were placed in a stainless steel mesh chamber and habituated for 30 min in the test box. The tactile sensitivity for ipsilateral hind paw was measured using the up-and-down method (Dixon, 1980) with seven von Frey monofilaments (0.4, 1, 2, 4, 6, 8, and 15 g) to 3 trials. Tactile sensitivity test was followed by Dixon's method (Dixon, 1980). The 50% paw withdrawal threshold for each paw was calculated using the following formula: [Xth] log=[vFr] log+ky where [vFr] is the force of the last von Frey used, k=0.2249 which is the average interval (in log units) between the von Frey monofilaments, and y is a value that depends upon the pattern of withdrawal responses (Dixon, 1980).
# Antiallodynic effect of compound was evaluated at the dose of 10-60 mg/kg (n=4-6), intraperitoneally administrated in a volume of 5 ul/g bw in a vehicle of 30% (v/v) PEG or 20% (v/v) Tween 80. The test was performed peak time of efficacy (0.5 or 1 hr) after compound administration.
# The relative values compared to the sham (% control) were calculated and shown in Table 4, which show an antiallodynic effect of Compound 1 on CFA-induced pain model in rats.
# SD rats = test: Anti-epilepsy activity, MES test, rat; details: for ED50: Rattus norvegicus, po
# Experimental: as §1
# ICR mice [5] = test: Anti-epilepsy activity, scPTZ test, mouse
# From the text: In this experiment, each test compound sample was formulated as described in Biological Experimental Example I, and administered intraperitoneally to the test animals (mice; ICR or Rat; SD); Experimental animals, male ICR mice and male SD rats, were purchased from OrientBio or Nara biotech, Korea, and housed 4-5 mice per a cage for 4-5 days. The range of mice body weight was used between 19 and 26 grams and range of rats body weight was used between 100 and 130 grams. After Peak time (0.5, 1, 2 and 4 hr) from the administration, PTZ (Pentylenetetrazol) was administered subcutaneously in the concentration capable of inducing 97% intermittent convulsions (mice: 76-110 mg/kg·bw, 10 μl/g, or rats: 79-110 mg/kg·bw, 2 μl/g). If clonic seizure was not observed for at least 30 minutes in the PTZ administered animal, it can be considered that the test compound has anti-epilepsy activity. The median effective dose (ED50) is determined using 6 animals per a concentration (total three different concen-trations), and calculated by Litchfield and Wicoxon log-probit method which is a dose-response relationship.
# [6] = Rattus norvegicus, ip, read-out: CFA-induced pain model efficacy %
# [7] = po, read-out: MES test (po) efficacy %
SMILES,MES test (po) Peak time (ICR mice [1]) [h],SNL Peak Time (Sprague-Dawley rats [3]) [h],CFA-induced pain model Peak Time (Sprague-Dawley rats [4]) [h],SNL efficacy % (Sprague-Dawley rats [3]),response vs control in vivo at 50 mg/kg (Sprague-Dawley rats [4]; [6]) [%],responders at 60 mg/kg (ICR mice [1]; [7]) [%],MES test (po) Peak time (SD rats),ED50 (SD rats) [mg/kg],also measured
"C[C@@H](OS(N)(=O)=O)[C@H](O)c1cccc(Cl)c1Cl [Example 10, (1R, 2R)-1-(2,3-dichlorophenyl)-1-hydroxypropan-2-yl sulfamate]",1,–,–,–,–,–,–,–,"responders at 100 mg/kg (ICR mice [1]; po, 100 mg/kg, read-out: MES test (po) efficacy %): 83.3%; Lithium pilocarpine model (pre) peak time (Sprague-Dawley rats [2]): 1 h; Lithium pilocarpine model (pre) efficacy % (Sprague-Dawley rats [2]; 100 mg/kg): 66.6%"
"C[C@H](OS(N)(=O)=O)[C@@H](O)c1ccccc1I [Example 19, (1S, 2S)-1-(2-iodophenyl)-1-hydroxypropan-2-yl sulfamate]",1,1,1,–,–,–,–,–,"ED50 (Sprague-Dawley rats [3]): 44.6 mg/kg; response vs control in vivo at 30 mg/kg (Sprague-Dawley rats [4]; Rattus norvegicus, ip, 30 mg/kg, read-out: CFA-induced pain model efficacy %): 24.3%; responders at 30 mg/kg (ICR mice [1]; po, 30 mg/kg, read-out: MES test (po) efficacy %): 66.6%"
"COCO[C@H](c1ccccc1I)[C@@H](C)OS(N)(=O)=O [Example 75, (1R, 2R) 1-(2-iodophenyl)-1-(methoxymethoxy)propan-2-yl sulfamate]",1,1,0.5,30(64.9%),28.1,33.3,(2 h),4.2,–
"C[C@H](OS(N)(=O)=O)[C@@H](O)c1ccccc1Cl [Example 1, (1S, 2S)-1-(2-chlorophenyl)-1-hydroxypropan-2-yl sulfamate]",2,–,–,–,–,–,–,–,ED50 (ICR mice [1]; po): 46.9 mg/kg; scPTZ test (ip) Peak time (ICR mice [5]): 0.5 h; ED50 (ICR mice [5]; ip): 76.6 mg/kg
"C[C@@H](OS(N)(=O)=O)[C@H](O)c1ccccc1I [Example 20, (1R, 2R)-1-(2-iodophenyl)-1-hydroxypropan-2-yl sulfamate]",1,1,0.5,30(58.7%),28.7,16.6,(2 h),20.1,–
"C[C@@H](OS(N)(=O)=O)[C@H](O)c1ccccc1F [Example 18, (1R, 2R)-1-(2-fluorophenyl)-1-hydroxypropan-2-yl sulfamate]",1,0.5,0.5,30(48.2%),46.6,–,(2 h),14.2,ED50 (ICR mice [1]; po): 62 mg/kg
"COCO[C@H](c1ccccc1F)[C@@H](C)OS(N)(=O)=O [Example 73, (1R, 2R)-1-(2-fluorophenyl)-1-(methoxymethoxy)propan-2-yl sulfamate]",1,1,0.5,30(31.3%),38.5,33.3,(4 h),34.8,–
"C[C@@H](OS(N)(=O)=O)[C@H](O)c1ccc(Cl)cc1Cl [Example 4, (1R, 2R)-1-(2,4-dichlorophenyl)-1-hydroxypropan-2-yl sulfamate]",–,–,–,–,–,–,4 h,–,scPTZ test (ip) Peak time (ICR mice [5]): 2 h; scPTZ test (ip) efficacy % (ICR mice [5]; 100 mg/kg): 100(100%); MES test (po) efficacy % (SD rats; 10 mg/kg): 33%
"C[C@H](OS(N)(=O)=O)[C@@H](O)c1ccccc1F [Example 17, (1S, 2S)-1-(2-fluorophenyl)-1-hydroxypropan-2-yl sulfamate]",–,1,0.5,–,–,–,–,–,"ED50 (Sprague-Dawley rats [3]): 46.9 mg/kg; ED50 (Sprague-Dawley rats [4]; Rattus norvegicus, ip, at peak time): 48.7 mg/kg"
